We go through 14 compounds from article PMC7112044 (Bioorganic Chemistry, 2008).

In assay [1] the target is SARS 3CL^pro (Severe acute respiratory syndrome coronavirus, UniProt P0C6X7). The assay can be described thus: biochemical. The class given is biochemical, SARS-CoV.
The target in assay [2] is 3CL^pro (Severe acute respiratory syndrome coronavirus, UniProt P0C6X7). The class given is binding, SARS-CoV.
[3] abbreviates: pH 7, read-out: Inhibition (100 μM).

Read-outs that look alike come from different tables or passages of the source.

In the case of “2-(5-Bromopyridin-3-yl)-2,2-difluoro-1-(furan-2- yl)ethanone [Compound 12c]”, in assay [1] (pH 7), the “Inhibition (100 μM)” value worked out at 21%.

As usually defined, the inhibition is the share of the control response that was lost under treatment. As for `O=C(c1cccs1)C(F)c1cccnc1` (centres unmarked) [Compound 6, 2-Fluoro-2-(pyridin-3-yl)-1-(thiophen-2-yl)ethanone], the “change of inhibition after 2 h preincubation with 3CL^pro” value in assay [1] is “no improved inhibition”. For the same compound, the inhibition at 100 µM in assay [1] (setting [3]) came out at 10%. As to `O=C(c1cccs1)C(F)(F)c1cccnc1` [Compound 7, 2,2-difluoro-2-(pyridin-3-yl)-1-(thiophen-2-yl)ethanone], in assay [1], the “change of inhibition after 2 h preincubation with 3CL^pro” value is “no improved inhibition” and the “potency of inhibition relative to pyridinyl ester 1” value was 2- to 3 fold. In assay [1] (setting [3]), the inhibition at 100 µM is 38%. Consider `O=C(Cc1cncc(Cl)c1)c1ccco1` [Compound 11a, 2-(5-Chloropyridin-3-yl)-1-(furan-2-yl)ethanone], for which the inhibition at 100 µM in assay [1] (read-out: Inhibition (100 μM)) was below 10%. Consider `O=C(Cc1cccc(Cl)c1)c1ccco1` [Compound 11b, 2-(3-Chlorophenyl)-1-(furan-2-yl)ethanone], for which, in assay [1] (read-out: Inhibition (100 μM)), the inhibition at 100 µM was below 10%. Still for that read-out and setting: with `O=C(Cc1cncc(Br)c1)c1ccco1` [Compound 11c, 2-(5-Bromopyridin-3-yl)-1-(furan-2-yl)ethanone] the figure was below 10%. For `O=C(Cc1cncc(Br)c1)c1ccc(-c2ccc(Cl)cc2)o1` [Compound 11d, 2-(5-Bromopyridin-3-yl)-1-(5-(4-chlorophenyl)furan-2-yl)ethanone], the “change of inhibitory activity after 2 h preincubation with 3CL^pro” value (shortened to “change of inhibitory activity”) in assay [1] is “no improved inhibitory activity”. In addition, in assay [2], the “mass change in the major mass peak of 3CL^pro” value (“mass change” for short) is on record as “no mass change”.

For the compound `O=C(c1ccco1)C(F)c1cncc(Cl)c1` (centres unmarked) [Compound 12a, 2-(5-Chloropyridin-3-yl)-2-fluoro-1-(furan-2-yl)ethanone], in assay [1] (setting [3]), the inhibition at 100 µM was determined as 14%. Still for that read-out and setting: with `O=C(c1ccco1)C(F)c1cccc(Cl)c1` (centres unmarked) [Compound 12b, 2-(3-Chlorophenyl)-2-fluoro-1-(furan-2-yl)ethanone] the figure was 15%. As to `O=C(c1ccc(-c2ccc(Cl)cc2)o1)C(F)c1cncc(Br)c1` (centres unmarked) [Compound 12d, 2-(5-Bromopyridin-3-yl)-1-(5-(4-chlorophenyl)furan-2-yl)-2-fluoroethanone], the “change of inhibitory activity” value in assay [1] is on record as “no improved inhibitory activity”. The “mass change” value in assay [2] is recorded as “no mass change”. Consider `O=C(c1ccco1)C(F)(F)c1cncc(Cl)c1` [Compound 13a, 2-(5-Chloropyridin-3-yl)-2,2-difluoro-1-(furan-2-yl)ethanone], for which the inhibition at 100 µM in assay [1] (setting [3]) stood at 27%.

As to `O=C(c1ccco1)C(F)(F)c1cccc(Cl)c1` [Compound 13b, 2-(3-Chlorophenyl)-2,2-difluoro-1-(furan-2-yl)ethanone], the inhibition at 100 µM in assay [1] (setting [3]) is 13%. For `O=C(c1ccc(-c2ccc(Cl)cc2)o1)C(F)(F)c1cncc(Br)c1` [Compound 13d, 2-(5-Bromopyridin-3-yl)-1-(5-(4-chlorophenyl)furan-2-yl)-2,2-difluoroethanone], the “change of inhibitory activity” value in assay [1] is given as “no improved inhibitory activity”. Moreover, the “mass change” value in assay [2] was “no mass change”. For `O=C(Cc1cncc(Br)c1)c1cc(-c2ccc(Cl)cc2)on1` [Compound 28, 2-(5-Bromopyridin-3-yl)-1-(5-(4-chlorophenyl)isoxazol-3-yl)ethanone], the inhibition at 100 µM in assay [1] (setting [3]) came out at 35%.
